Compound: C=CCNC1=C2C[C@@H](C)C[C@H](OC)[C@H](O)[C@@H](C)/C=C(\C)[C@H](OC(N)=O)[C@@H](OC)/C=C\C=C(/C)C(=O)NC(=CC1=O)C2=O [17-AAG]
Assay: relative viability (nuclei count vs DMSO), 5 days (fraction); higher = more cells survive
Summary of the method: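 Lung cancer cell lines in 1536-well plates were kept overnight at 37 °C, then pinned with five library-drug doses (not always all listed) spaced by √10 on vehicle-anchored plates. After 5 days without medium change, cells were fixed, permeabilised and Hoechst-stained in one step, imaged at 4×, and nuclei were counted with MetaXpress. Viability is treated-well nuclei divided by vehicle-well nuclei, taken as the median over plates. Plates passed only with control CV below 25% and at least one doubling.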

NCI-H661
relative viability (0.00128 µM): 0.937 | relative viability (0.004048 µM): 0.998 | relative viability (0.0128 µM): 0.953 | relative viability (0.04048 µM): 0.549 | relative viability (0.128 µM): 0.295

NCI-H727
relative viability (0.00128 µM): 0.989 | relative viability (0.004048 µM): 0.922 | relative viability (0.0128 µM): 0.858 | relative viability (0.04048 µM): 0.5 | relative viability (0.128 µM): 0.344

NCI-H838
relative viability (0.00128 µM): 1.03 | relative viability (0.004048 µM): 0.963 | relative viability (0.0128 µM): 0.575 | relative viability (0.04048 µM): 0.187 | relative viability (0.128 µM): 0.177

NCI-H1299
relative viability (0.00128 µM): 1.01 | relative viability (0.004048 µM): 0.977 | relative viability (0.0128 µM): 0.981 | relative viability (0.04048 µM): 0.931 | relative viability (0.128 µM): 0.538

NCI-H1355
relative viability (0.00128 µM): 0.983 | relative viability (0.004048 µM): 0.974 | relative viability (0.0128 µM): 0.899 | relative viability (0.04048 µM): 0.193 | relative viability (0.128 µM): 0.159

NCI-H1395
relative viability (0.00128 µM): 0.79 | relative viability (0.004048 µM): 0.818 | relative viability (0.0128 µM): 0.648 | relative viability (0.04048 µM): 0.388 | relative viability (0.128 µM): 0.342

NCI-H1437
relative viability (0.00128 µM): 1.03 | relative viability (0.004048 µM): 0.931 | relative viability (0.0128 µM): 0.637 | relative viability (0.04048 µM): 0.249 | relative viability (0.128 µM): 0.178

NCI-H1563
relative viability (0.00128 µM): 1.03 | relative viability (0.004048 µM): 0.893 | relative viability (0.0128 µM): 0.599 | relative viability (0.04048 µM): 0.629 | relative viability (0.128 µM): 0.519

NCI-H1648
relative viability (0.00128 µM): 0.888 | relative viability (0.004048 µM): 1.08 | relative viability (0.0128 µM): 0.839 | relative viability (0.04048 µM): 0.673 | relative viability (0.128 µM): 0.59

NCI-H1650
relative viability (0.00128 µM): 0.89 | relative viability (0.004048 µM): 0.477 | relative viability (0.0128 µM): 0.197 | relative viability (0.04048 µM): 0.2 | relative viability (0.128 µM): 0.144

NCI-H1651
relative viability (0.00128 µM): 0.955 | relative viability (0.004048 µM): 0.964 | relative viability (0.0128 µM): 0.945 | relative viability (0.04048 µM): 0.681 | relative viability (0.128 µM): 0.335

NCI-H1666
relative viability (0.00128 µM): 1.01 | relative viability (0.004048 µM): 0.913 | relative viability (0.0128 µM): 0.723 | relative viability (0.04048 µM): 0.47 | relative viability (0.128 µM): 0.364

NCI-H1703
relative viability (0.00128 µM): 0.911 | relative viability (0.004048 µM): 0.734 | relative viability (0.0128 µM): 0.173 | relative viability (0.04048 µM): 0.191 | relative viability (0.128 µM): 0.145

NCI-H1734
relative viability (0.00128 µM): 0.98 | relative viability (0.004048 µM): 1.02 | relative viability (0.0128 µM): 0.839 | relative viability (0.04048 µM): 0.284 | relative viability (0.128 µM): 0.15

NCI-H1755
relative viability (0.00128 µM): 1.01 | relative viability (0.004048 µM): 0.943 | relative viability (0.0128 µM): 0.897 | relative viability (0.04048 µM): 0.433 | relative viability (0.128 µM): 0.238

NCI-H1792
relative viability (0.00128 µM): 0.888 | relative viability (0.004048 µM): 0.772 | relative viability (0.0128 µM): 0.347 | relative viability (0.04048 µM): 0.165 | relative viability (0.128 µM): 0.181

NCI-H1793
relative viability (0.00128 µM): 0.967 | relative viability (0.004048 µM): 0.842 | relative viability (0.0128 µM): 0.282 | relative viability (0.04048 µM): 0.186 | relative viability (0.128 µM): 0.135

NCI-H1915
relative viability (0.00128 µM): 0.917 | relative viability (0.004048 µM): 0.966 | relative viability (0.0128 µM): 0.952 | relative viability (0.04048 µM): 0.152 | relative viability (0.128 µM): 0.0877

NCI-H1944
relative viability (0.00128 µM): 0.863 | relative viability (0.004048 µM): 0.915 | relative viability (0.0128 µM): 0.896 | relative viability (0.04048 µM): 0.251 | relative viability (0.128 µM): 0.178

NCI-H1975
relative viability (0.00128 µM): 0.909 | relative viability (0.004048 µM): 0.889 | relative viability (0.0128 µM): 0.372 | relative viability (0.04048 µM): 0.16 | relative viability (0.128 µM): 0.167

NCI-H1993
relative viability (0.00128 µM): 0.937 | relative viability (0.004048 µM): 0.909 | relative viability (0.0128 µM): 0.611 | relative viability (0.04048 µM): 0.476 | relative viability (0.128 µM): 0.432

NCI-H2009
relative viability (0.00128 µM): 0.961 | relative viability (0.004048 µM): 0.995 | relative viability (0.0128 µM): 0.93 | relative viability (0.04048 µM): 0.894 | relative viability (0.128 µM): 0.274

NCI-H2023
relative viability (0.00128 µM): 0.919 | relative viability (0.004048 µM): 0.724 | relative viability (0.0128 µM): 0.122 | relative viability (0.04048 µM): 0.0716 | relative viability (0.128 µM): 0.0728

NCI-H2085
relative viability (0.00128 µM): 0.994 | relative viability (0.004048 µM): 0.95 | relative viability (0.0128 µM): 0.99 | relative viability (0.04048 µM): 0.919 | relative viability (0.128 µM): 0.76

NCI-H2087
relative viability (0.00128 µM): 0.984 | relative viability (0.004048 µM): 0.767 | relative viability (0.0128 µM): 0.16 | relative viability (0.04048 µM): 0.177 | relative viability (0.128 µM): 0.134

NCI-H2126
relative viability (0.00128 µM): 1.01 | relative viability (0.004048 µM): 0.995 | relative viability (0.0128 µM): 0.957 | relative viability (0.04048 µM): 0.435 | relative viability (0.128 µM): 0.26

NCI-H2170
relative viability (0.00128 µM): 1.01 | relative viability (0.004048 µM): 0.973 | relative viability (0.0128 µM): 0.605 | relative viability (0.04048 µM): 0.178 | relative viability (0.128 µM): 0.168

NCI-H2228
relative viability (0.00128 µM): 1.08 | relative viability (0.004048 µM): 0.72 | relative viability (0.0128 µM): 0.125 | relative viability (0.04048 µM): 0.112 | relative viability (0.128 µM): 0.152

NCI-H2342
relative viability (0.00128 µM): 0.951 | relative viability (0.004048 µM): 1.01 | relative viability (0.0128 µM): 1.01 | relative viability (0.04048 µM): 0.78 | relative viability (0.128 µM): 0.428

NCI-H2347
relative viability (0.00128 µM): 0.958 | relative viability (0.004048 µM): 0.998 | relative viability (0.0128 µM): 1.13 | relative viability (0.04048 µM): 0.557 | relative viability (0.128 µM): 0.385

NCI-H2405
relative viability (0.00128 µM): 1.02 | relative viability (0.004048 µM): 0.957 | relative viability (0.0128 µM): 0.663 | relative viability (0.04048 µM): 0.251 | relative viability (0.128 µM): 0.236

NCI-H3122
relative viability (0.00128 µM): 0.99 | relative viability (0.004048 µM): 0.867 | relative viability (0.0128 µM): 0.29 | relative viability (0.04048 µM): 0.155 | relative viability (0.128 µM): 0.134

PC-3 [JPC-3]
relative viability (0.00128 µM): 1.01 | relative viability (0.004048 µM): 1.06 | relative viability (0.0128 µM): 1.01 | relative viability (0.128 µM): 0.873

PC-14
relative viability (0.00128 µM): 0.967 | relative viability (0.004048 µM): 0.742 | relative viability (0.0128 µM): 0.398 | relative viability (0.04048 µM): 0.108 | relative viability (0.128 µM): 0.0843

RERF-LC-KJ
relative viability (0.00128 µM): 1.03 | relative viability (0.004048 µM): 1.05 | relative viability (0.0128 µM): 0.669 | relative viability (0.04048 µM): 0.284 | relative viability (0.128 µM): 0.26

SK-LU-1
relative viability (0.00128 µM): 1.06 | relative viability (0.004048 µM): 0.796 | relative viability (0.0128 µM): 0.315 | relative viability (0.04048 µM): 0.229 | relative viability (0.128 µM): 0.181

SK-MES-1
relative viability (0.00128 µM): 0.966 | relative viability (0.004048 µM): 0.86 | relative viability (0.0128 µM): 0.45 | relative viability (0.04048 µM): 0.181 | relative viability (0.128 µM): 0.159

SW 900
relative viability (0.00128 µM): 0.831 | relative viability (0.004048 µM): 0.727 | relative viability (0.0128 µM): 0.312 | relative viability (0.04048 µM): 0.155 | relative viability (0.128 µM): 0.141

SW 1573
relative viability (0.00128 µM): 0.973 | relative viability (0.004048 µM): 0.95 | relative viability (0.0128 µM): 0.542 | relative viability (0.04048 µM): 0.151 | relative viability (0.128 µM): 0.104

UMC-11
relative viability (0.00128 µM): 0.943 | relative viability (0.004048 µM): 1.01 | relative viability (0.0128 µM): 0.839 | relative viability (0.04048 µM): 0.478 | relative viability (0.128 µM): 0.195
